Reference: patent US20220322671A1, “METHODS TO REDUCE CONTAMINATION, BIOFILM AND FOULING FROM WATER SYSTEMS, SURFACES, AND PRODUCTS” (Aequor, Inc., priority 2019, published 2022)
Several values for one entry are separate records, joined by “and”; a condition that tells them apart may be missing. Equal values may be shown once. Read-outs that look alike come from different tables or passages of the source.

Legend:
C. marina ATCC 25374 [1] = test: MIC broth microdilution, C. marina; format: cell-based
C. marina ATCC 25374 [2] = test: Minimum bactericidal concentration, C. marina; format: cell-based
[3] = tested on: C. marina ATCC 25374 biofilm; test: MBEC biofilm eradication assay, C. marina; format: cell-based
E. coli ATCC 11775 = test: MIC broth microdilution, E. coli; format: cell-based
MRSA ATCC 33591 = test: MIC broth microdilution, MRSA; format: cell-based, S. aureus Methicillin-Resistant
S. aureus ATCC 12600 = test: MIC broth microdilution, S. aureus; format: cell-based
[4] = tested on: Heterochlorella luteoviridis cf. (SAG 2203); test: Algae growth inhibition; format: cell-based; conditions: 1% concentration, 14 days, absorbance 750 nm
Protocol: The molecules (SDBS, SDS, SEHS, and DBSA) were added to the growth culture medium of algae Heterochlorella luteoviridis cf. (SAG 2203.) Algae was grown in 50 ml tubes at 28 °C for 14 days. Absorbance (optical density) was measured at 750 nm in a spectrophotometer and used to determine concentration to inhibit the growth of algae.

L. fermentum (ATCC 9338) = test: MIC broth microdilution, L. fermentum; format: cell-based, Lactobacillus fermentum
A. niger ATCC 16888 = test: MIC broth microdilution, A. niger; format: cell-based
P. aeruginosa NR-31041 = test: MIC broth microdilution, P. aeruginosa; format: cell-based, Pseudomonas aeruginosa
[5] = C. marina ATCC 25374, materials in water
[6] = 24- and 48-hour biofilm, 30 min exposure

CCCCOP(=O)(O)OCCCC [DBP, dibutyl phosphate]
Growth of C. marina (in words) (C. marina ATCC 25374 [1]): inhibited growth
Minimum Inhibitory Concentration (% v/v) M07-09 Method (C. marina ATCC 25374 [1]): 0.1250 % v/v
% Reduction Compared to Control (C. marina ATCC 25374 [2]): 99.9999%
CFU/ml (C. marina ATCC 25374 [2]): <1E+02^1 CFU/ml
Minimum Bactericidal Concentration (% v/v) CLSI M26-A Method (C. marina ATCC 25374 [2]): 0.5000 % v/v
% Reduction Compared to Control [3]: 99.9999% and 99.999%
Log Reduction [3]: 5.5
MBEC ASTM E2799-12 Method (% v/v) [3]: 0.5 % v/v

CCCCCCCCCCCCc1ccc(S(=O)(=O)O)cc1 [DBSA, 4-Dodecylbenzenesulfonic acid]
Minimum Inhibitory Concentration (MIC) M07-09 Method, EC (E. coli ATCC 11775; E. coli ATCC 11775): 0.100 % v/v
Growth of C. marina (in words) (C. marina ATCC 25374 [1]; C. marina): inhibited growth
Minimum Inhibitory Concentration (% v/v) M07-09 Method (C. marina ATCC 25374 [1]; [5]): < 0.0039 % v/v
Minimum Inhibitory Concentration (MIC) M07-09 Method, MRSA (MRSA ATCC 33591): 0.003 % v/v
Minimum Inhibitory Concentration (MIC) M07-09 Method, SA (S. aureus ATCC 12600; S. aureus ATCC 12600): 0.003 % v/v
Algae growth [4]: inhibited
Minimum Inhibitory Concentration (MIC) (% v/v) M07-09 Method, L. fermentum (L. fermentum (ATCC 9338)): 0.0150 % v/v
Minimum Inhibitory Concentration (MIC) M07-09 Method, AN (A. niger ATCC 16888; A. niger ATCC 16888): 0.003 % v/v
Minimum Inhibitory Concentration (MIC) M07-09 Method, PA (P. aeruginosa NR-31041; P. aeruginosa NR-31041): 0.500 % v/v
% Reduction Compared to Control (C. marina ATCC 25374 [2]; C. marina ATCC 25374, killing): 99.9999%
Minimum Bactericidal Concentration (% v/v) CLSI M26-A Method (C. marina ATCC 25374 [2]; [5]): 0.0078 % v/v
CFU/ml (C. marina ATCC 25374 [2]; C. marina ATCC 25374, detection limit <1E+02): <1E+02^1 CFU/ml
MBEC ASTM E2799-12 Method (% v/v) [3, 6]: >0.5 % v/v
% Biofilm Removal Efficacy ([3]; 48-hour biofilm, 0.0078 % v/v): 73.64%
Log Reduction ([3]; 48-hour biofilm, 0.0078 % v/v): 0.58
% Biofilm Removal Efficacy ([3]; 48-hour biofilm, 0.0156 % v/v): 86.36%
Log Reduction ([3]; 48-hour biofilm, 0.0156 % v/v): 0.87
% Biofilm Removal Efficacy ([3]; 48-hour biofilm, 0.0313 % v/v): 96.27%
Log Reduction ([3]; 48-hour biofilm, 0.0313 % v/v): 1.43
% Biofilm Removal Efficacy ([3]; 48-hour biofilm, 0.0630 % v/v): 98.27%
Log Reduction ([3]; 48-hour biofilm, 0.0630 % v/v): 1.76
Removal of existing 48-hour biofilm (up to) ([3]; 48-hour biofilm, best of the tested concentrations): ≤ 99%

CCCCC(CC)COS(=O)(=O)[O-].[Na+] (stereo not drawn) [SEHS, sodium 2-ethylhexylsulfate]
Growth of C. marina (in words) (C. marina ATCC 25374 [1]): inhibited growth
Minimum Inhibitory Concentration (% v/v) M07-09 Method (C. marina ATCC 25374 [1]): 0.0313 % v/v
Minimum Inhibitory Concentration (MIC) M07-09 Method, SA (S. aureus ATCC 12600): 0.280 % v/v
Algae growth [4]: inhibited
Minimum Inhibitory Concentration (MIC) M07-09 Method, PA (P. aeruginosa NR-31041): 0.500 % v/v
% Reduction Compared to Control (C. marina ATCC 25374 [2]): 99.9999%
CFU/ml (C. marina ATCC 25374 [2]): <1E+02^1 CFU/ml
Minimum Bactericidal Concentration (% v/v) CLSI M26-A Method (C. marina ATCC 25374 [2]): 0.0630 % v/v
MBEC ASTM E2799-12 Method (% v/v) [3, 6]: >0.5 % v/v

CCCCCCCCCCCCOS(=O)(=O)[O-].[Na+] [SDS, sodium dodecyl sulfate]
Minimum Inhibitory Concentration (MIC) M07-09 Method, EC (E. coli ATCC 11775): 0.100 % v/v
Minimum Inhibitory Concentration (MIC) M07-09 Method, MRSA (MRSA ATCC 33591): 0.028 % v/v
Minimum Inhibitory Concentration (MIC) M07-09 Method, SA (S. aureus ATCC 12600): 0.028 % v/v
Algae growth [4]: inhibited
Minimum Inhibitory Concentration (MIC) M07-09 Method, AN (A. niger ATCC 16888): 0.030 % v/v
Minimum Inhibitory Concentration (MIC) M07-09 Method, PA (P. aeruginosa NR-31041): 0.500 % v/v
